Source: DBAASP
≈ marks a conversion by molar mass, not a printed value. Each block holds one molecule with its values, some of them ahead of it.

Experiments:
Assay in all cases: ≥ marks a high value that may be exact or a test limit, other limits are often not marked, values filed in µg/mL are converted to µM
[1] = system: Streptococcus pyogenes M1T1 5448
[2] = system: Staphylococcus aureus USA 300
Escherichia coli BL21 = system: Escherichia coli BL21
[3] = system: Pseudomonas aeruginosa PAO1
Escherichia coli = system: Escherichia coli
[4] = system: Escherichia coli ATCC 25922
[5] = system: Escherichia coli ATCC 8739
Klebsiella pneumoniae = system: Klebsiella pneumoniae
[6] = system: Staphylococcus aureus ATCC 25923
[7] = system: Staphylococcus aureus USA 100
[8] = system: Escherichia coli KCTC 1682
[9] = system: Staphylococcus aureus KCTC 1621
[10] = system: Staphylococcus aureus CCARM 3089
[11] = system: Pseudomonas aeruginosa KCTC 1637
[12] = system: Salmonella typhimurium KCTC 1926
[13] = system: Staphylococcus epidermidis KCTC 1917
[14] = system: Bacillus subtilis KCTC 3068
[15] = system: Candida albicans ATCC 90028
[16] = system: Pseudomonas aeruginosa ATCC 9027
[17] = system: Pectobacterium carotovorum
Escherichia coli JW0013 = system: Escherichia coli JW0013
Enterococcus faecium = system: Enterococcus faecium
Staphylococcus aureus = system: Staphylococcus aureus
Streptococcus pyogenes = system: Streptococcus pyogenes
Proteus vulgaris = system: Proteus vulgaris
[18] = system: Staphylococcus epidermidis
Salmonella typhimurium = system: Salmonella typhimurium
Pseudomonas aeruginosa = system: Pseudomonas aeruginosa
Bacillus subtilis = system: Bacillus subtilis

MIC [1]: 16 µM (≈ 48 µg/mL) | MIC [2]: ≥ 128 µM | MIC (Escherichia coli BL21): 4 µM (≈ 12 µg/mL) | MIC [3]: 16 µM (≈ 48 µg/mL)
SMILES: CC[C@H](C)[C@H](NC(=O)[C@H](CO)NC(=O)[C@H](CCC(=O)O)NC(=O)[C@H](CCCN=C(N)N)NC(=O)CNC(=O)[C@H](C)N)C(=O)N[C@@H](CCCCN)C(=O)N[C@@H](C)C(=O)N[C@@H](Cc1ccc(O)cc1)C(=O)N[C@@H](CC(C)C)C(=O)N[C@@H](CCCCN)C(=O)N[C@@H](CCCCN)C(=O)N[C@@H](CCC(=O)O)C(=O)N[C@H](C(=O)N[C@@H](CCCCN)C(=O)N[C@@H](CCCCN)C(=O)N[C@@H](CCCCN)C(=O)N[C@@H](Cc1c[nH]c2ccccc12)C(=O)N[C@@H](CCCCN)C(=O)N[C@@H](CCCN=C(N)N)C(=O)N[C@@H](C)C(=O)N[C@H](C(=O)N[C@H](C(=O)N[C@@H](C)C(=O)N[C@@H](Cc1c[nH]c2ccccc12)C(=O)O)[C@@H](C)CC)C(C)C)[C@@H](C)CC [AGRESIKAYLKKEIKKKWKRAVIAW]

MIC (Escherichia coli): 30 µM (≈ 64 µg/mL) | MIC [4]: 11.7 µM (≈ 25 µg/mL) | MIC [5]: 7.5 µM (≈ 16 µg/mL) | MIC (Klebsiella pneumoniae): 60.9 µM (≈ 130 µg/mL) | MIC [6]: > 120 µM
SMILES: CC[C@H](C)[C@H](NC(=O)[C@H](CCCN=C(N)N)NC(=O)[C@H](C)NC(=O)[C@H](C)NC(=O)[C@H](CC(C)C)NC(=O)[C@H](CCCCN)NC(=O)[C@H](CCCCN)NC(=O)[C@H](CCCCN)NC(=O)[C@H](CCSC)NC(=O)[C@@H]1CCCN1)C(=O)N[C@@H](CC(C)C)C(=O)N[C@@H](C)C(=O)N[C@@H](CCCCN)C(=O)N[C@H](C(=O)N[C@H](C(=O)N[C@@H](C)C(=O)N1CCC[C@H]1C(=O)N[C@H](C(=O)N[C@@H](Cc1c[nH]c2ccccc12)C(=O)O)C(C)C)C(C)C)[C@@H](C)CC [PMKKKLAARILAKIVAPVW]

MIC [8]: 2 µM (≈ 3.25 µg/mL) | MIC [9]: 2 µM (≈ 3.25 µg/mL) | MIC [10]: 4 µM (≈ 6.49 µg/mL) | MIC [11]: 8 µM (≈ 13 µg/mL) | MIC [12]: 2 µM (≈ 3.25 µg/mL) | MIC [13]: 1 µM (≈ 1.62 µg/mL) | MIC [14]: 2 µM (≈ 3.25 µg/mL)
SMILES: CC[C@H](C)[C@H](NC(=O)[C@H](CCCN=C(N)N)NC(=O)[C@H](CCCCN)NC(=O)[C@@H](NC(=O)[C@@H](NC(=O)[C@H](CCCN=C(N)N)NC(=O)[C@@H](N)CCCCN)[C@@H](C)CC)C(C)C)C(=O)N[C@@H](CCCCN)C(=O)N[C@@H](CCCCN)C(=O)N[C@@H](Cc1c[nH]c2ccccc12)C(=O)N[C@@H](CC(C)C)C(=O)N[C@@H](CCCN=C(N)N)C(N)=O [KRIVKRIKKWLR]

MIC [1]: 16 µM (≈ 47.2 µg/mL) | MIC (Escherichia coli BL21): ≥ 32 µM | MIC [3]: > 128 µM
SMILES: CC[C@H](C)[C@H](NC(=O)[C@H](Cc1ccccc1)NC(=O)[C@H](C)NC(=O)[C@H](CCCCN)NC(=O)[C@H](CCCCN)NC(=O)CNC(=O)[C@H](CCCN=C(N)N)NC(=O)[C@H](CCCCN)NC(=O)[C@H](CCCN=C(N)N)NC(=O)[C@H](CC(C)C)NC(=O)[C@H](CCC(=O)O)NC(=O)[C@H](CCC(=O)O)NC(=O)[C@H](CCCCN)NC(=O)[C@H](CC(C)C)NC(=O)[C@H](Cc1ccc(O)cc1)NC(=O)[C@H](CC(C)C)NC(=O)[C@@H](NC(=O)[C@H](CC(C)C)NC(=O)[C@H](C)NC(=O)[C@H](CCC(N)=O)NC(=O)[C@H](CCCN=C(N)N)NC(=O)CNC(=O)[C@H](C)N)[C@@H](C)O)C(=O)N[C@@H](C)C(=O)N[C@@H](Cc1c[nH]c2ccccc12)C(=O)O [AGRQALTLYLKEELRKRGKKAFIAW]

MIC [1]: 8 µM (≈ 23.4 µg/mL) | MIC (Escherichia coli BL21): ≥ 32 µM | MIC [3]: > 128 µM
SMILES: CC[C@H](C)[C@H](NC(=O)[C@H](CCCCN)NC(=O)[C@H](CCCCN)NC(=O)[C@H](CCCCN)NC(=O)[C@H](CC(C)C)NC(=O)[C@H](Cc1ccccc1)NC(=O)[C@H](CCC(N)=O)NC(=O)[C@H](CCCN=C(N)N)NC(=O)[C@@H](NC(=O)[C@@H](NC(=O)[C@H](CCC(=O)O)NC(=O)[C@H](CCCCN)NC(=O)CNC(=O)[C@H](C)N)[C@@H](C)O)[C@@H](C)CC)C(=O)N[C@@H](CCC(N)=O)C(=O)N[C@@H](CCC(=O)O)C(=O)N[C@@H](CCCCN)C(=O)NCC(=O)N[C@@H](CCCCN)C(=O)N[C@@H](CCCN=C(N)N)C(=O)N[C@@H](C)C(=O)N[C@H](C(=O)N[C@H](C(=O)N[C@@H](C)C(=O)N[C@@H](Cc1c[nH]c2ccccc12)C(=O)O)[C@@H](C)CC)[C@@H](C)O [AGKETIRQFLKKKIQEKGKRATIAW]

Continued, molecule first:

SMILES: CC[C@H](C)[C@H](N)C(=O)N[C@@H](CCCN=C(N)N)C(=O)N[C@H](C(=O)N[C@@H](CCCN=C(N)N)C(N)=O)[C@@H](C)CC [IRIR]
MIC [7]: ≥ 100 µM

SMILES: NC(=O)C[C@H](NC(=O)[C@H](Cc1ccccc1)NC(=O)[C@@H](N)Cc1c[nH]c2ccccc12)C(=O)O [WFN]
MIC [2]: ≥ 100 µM | MIC [15]: ≥ 100 µM | MIC [7]: ≥ 100 µM | MIC [16]: > 100 µM

SMILES: CC(C)C[C@H](NC(=O)[C@H](Cc1ccccc1)NC(=O)CNC(=O)[C@H](C)NC(=O)[C@H](Cc1ccccc1)NC(=O)[C@@H](NC(=O)[C@H](CCCN=C(N)N)NC(=O)[C@H](CC(=O)O)NC(=O)[C@H](CCCCN)NC(=O)[C@H](CCC(=O)O)NC(=O)[C@@H](N)CCC(N)=O)[C@@H](C)O)C(=O)N[C@@H](CC(C)C)C(=O)N[C@@H](CCCCN)C(=O)NCC(=O)N[C@@H](Cc1ccccc1)C(=O)NCC(=O)N[C@H](C(=O)N[C@@H](CO)C(=O)N[C@@H](C)C(=O)N[C@@H](CO)C(=O)O)[C@@H](C)O [QEKDRTFAGFLLKGFGTSAS]
MIC [17]: 1.34 µM

SMILES: CC[C@H](C)[C@H](NC(=O)[C@H](CCCN=C(N)N)NC(=O)[C@H](CCCN=C(N)N)NC(=O)[C@@H]1CCCN1C(=O)[C@@H]1CCCN1C(=O)[C@H](CCCN=C(N)N)NC(=O)[C@@H]1CCCN1C(=O)[C@H](CCCN=C(N)N)NC(=O)[C@@H]1CCCN1C(=O)[C@H](CC(C)C)NC(=O)[C@H](Cc1ccc(O)cc1)NC(=O)[C@@H]1CCCN1C(=O)[C@H](CCSC)NC(=O)[C@H](CCCCN)NC(=O)[C@H](CC(=O)O)NC(=O)[C@@H](N)C(C)C)C(=O)N[C@@H](Cc1ccc(O)cc1)C(=O)N[C@@H](CC(N)=O)C(=O)N[C@@H](CCCN=C(N)N)C(N)=O [VDKMPYLPRPRPPRRIYNR]
MIC (Escherichia coli JW0013): 1.28 µM (≈ 3.1 µg/mL)

SMILES: CC(C)C[C@H](NC(=O)[C@H](CCCN=C(N)N)NC(=O)[C@@H]1CCCN1C(=O)[C@H](Cc1cnc[nH]1)NC(=O)[C@@H]1CCCN1C(=O)[C@@H]1CCCN1C(=O)[C@H](CCCN=C(N)N)NC(=O)[C@@H]1CCCN1C(=O)[C@H](CCC(N)=O)NC(=O)[C@@H]1CCCN1C(=O)[C@H](CCCN=C(N)N)NC(=O)[C@H](Cc1ccc(O)cc1)NC(=O)[C@@H](NC(=O)[C@@H]1CCCN1C(=O)[C@H](CCCN=C(N)N)NC(=O)[C@H](CC(N)=O)NC(=O)[C@H](CC(N)=O)NC(=O)CN)C(C)C)C(=O)O [GNNRPVYRPQPRPPHPRL]
MIC (Escherichia coli JW0013): 0.3 µM (≈ 0.645 µg/mL)

SMILES: NC(N)=NCCC[C@H](NC(=O)[C@H](CCCN=C(N)N)NC(=O)[C@H](Cc1ccccc1)NC(=O)[C@@H]1CCCN1C(=O)[C@H](Cc1c[nH]c2ccccc12)NC(=O)[C@H](Cc1c[nH]c2ccccc12)NC(=O)[C@H](Cc1c[nH]c2ccccc12)NC(=O)[C@@H]1CCCN1C(=O)[C@H](Cc1ccccc1)NC(=O)[C@H](CCCN=C(N)N)NC(=O)[C@@H](N)CCCN=C(N)N)C(=O)O [RRFPWWWPFRR]
MIC [8]: 9.47 µM (≈ 16 µg/mL) | MIC (Enterococcus faecium): 2.37 µM (≈ 4 µg/mL) | MIC [9]: 2.37 µM (≈ 4 µg/mL) | MIC (Staphylococcus aureus): 3.35 µM (≈ 5.66 µg/mL) | MIC [11]: 9.47 µM (≈ 16 µg/mL) | MIC [12]: 4.73 µM (≈ 8 µg/mL) | MIC [13]: 1.18 µM (≈ 2 µg/mL) | MIC [14]: 2.37 µM (≈ 4 µg/mL)

SMILES: CC(C)C[C@H](NC(=O)[C@H](CCCN=C(N)N)NC(=O)[C@@H]1CCCN1C(=O)[C@H](Cc1cnc[nH]1)NC(=O)[C@@H]1CCCN1C(=O)[C@@H]1CCCN1C(=O)[C@H](CCCN=C(N)N)NC(=O)[C@@H]1CCCN1C(=O)[C@H](CCC(N)=O)NC(=O)[C@@H]1CCCN1)C(=O)O [PQPRPPHPRL]
MIC (Escherichia coli): 64 µM (≈ 76.4 µg/mL) | MIC (Streptococcus pyogenes): ≥ 64 µM | MIC (Proteus vulgaris): ≥ 64 µM | MIC [18]: ≥ 64 µM | MIC (Salmonella typhimurium): 16 µM (≈ 19.1 µg/mL) | MIC (Pseudomonas aeruginosa): 64 µM (≈ 76.4 µg/mL) | MIC (Bacillus subtilis): ≥ 64 µM
